How the values were obtained:
MCP-1 = assay: MCSF-stimulation of human whole blood, MCP-1 levels by sandwich ELISA; assay type: cell-based; settings: inhibitor 2 hours before MCSF 50 ng/ml, 22 hrs, MCP-1 in cell-free supernatants, read-out: Inhibitor activity versus MCP-1
Protocol: Macrophage Colony-Stimulating Factor (MCSF)-Stimulation of Human Whole Blood
Whole blood was taken by venous puncture using heparinised vacutainers (Becton Dickinson) and diluted in an equal volume of RPMI1640 tissue culture media (Sigma). 100 μl was plated in V-bottomed 96 well tissue culture treated plates. 2 hours after the addition of the inhibitor in 100 μl of RPMI1640 media, the blood was stimulated with MCSF (Peprotech: #300-25-10 uG) at a final concentration of 50 ng/ml and incubated at 37° C. in 5% CO2 for 22 hrs. MCP-1 levels were measured from cell-free supernatants by sandwich ELISA developed from MCP-1/CCL2 Duoset (R&D Systems #DY279). Additional reagents required for ELISA were purchased from Sigma, (BSA: A3059, 10×PBS: D1408, Tween20: P5927) R&D Systems, (colour reagent: #DY999 and stop solution: #DY994) and Costar (96-well EIA plates: #2592). Assays were carried out following the manufacturer's instructions with the following modifications: Cell-free supernatants were diluted 30:70 in reagent diluent before assay. All incubations except capture antibody were carried out with shaking at 550 rpm. 3 washes were carried out between steps, and incubation times were blocking 1.5 hr, sample/standard and detection antibody incubations 2 hr, HRP incubation 30 min, colour development 20 min. • IC50 values were allocated to one of five ranges as follows: • Range A: IC50<100 nM • Range B: 100 nM<IC50<300 nM • Range C: 300 nM<1050<1000 nM • Range D: 1000 nM<IC50<5000 nM • Range E: IC50>5000 nM • NT=not tested

CSF1R (FMS) = molecular target: T1, CSF1R (FMS) (Homo sapiens, UniProt P07333); assay: CSF1R (FMS) kinase activity, Z'-LYTE biochemical assay (Invitrogen); settings: ATP at or close to Km, 60 minute reaction at room temperature, read-out: Inhibitor activity versus CSF-1
T1 construct: purchased Invitrogen (Paisley, UK)
Protocol: CSF1R (FMS) Kinase Activity
The ability of compounds to inhibit CSF1R (FMS) kinase activity was measured in an assay performed by Invitrogen (Paisley, UK). The Z′-LYTE™ biochemical assay employs a fluorescence-based, coupled-enzyme format and is based on the differential sensitivity of phosphorylated and non-phosphorylated peptides to proteolytic cleavage. The peptide substrate is labelled with two fluorophores—one at each end—that make up a FRET pair. In the primary reaction, the kinase transfers the gamma-phosphate of ATP to a single […] residue in a synthetic FRET-peptide. In the secondary reaction, a site-specific protease recognizes and cleaves non-phosphorylated FRET-peptides. Phosphorylation of FRET-peptides suppresses cleavage by the Development Reagent. Cleavage disrupts FRET between the donor (i.e. coumarin) and acceptor (i.e. fluorescein) fluorophores on the FRET-peptide, whereas uncleaved, phosphorylated FRET-peptides maintain FRET. A […] method, which calculates the ratio (the Emission Ratio) of donor emission to acceptor emission after excitation of the donor fluorophore at 400 nm, is used to quantitate reaction progress.
The final 10 μL Kinase Reaction consists of 0.12-12.3 ng CSF1R (FMS), 2 μM Tyr 01 Peptide and ATP in 50 mM HEPES pH 7.5, 0.01% BRIJ-35, 10 mM MgCl2, 1 mM EGTA. The assay is performed at an ATP concentration at, or close to, the Km. After the 60 minute Kinase Reaction incubation at room temperature, 5 μL of a 1:256 dilution of Development Reagent is added. The assay plate is incubated for a further 60 minutes at room temperature and read on a fluorescence plate reader.
Duplicate data points are generated from a ⅓ log dilution series of a stock solution of test compound in DMSO. Nine dilutions steps are made from a top concentration of 10 mM, and a ‘no compound’ blank is included. Data is collected and analysed using XLfit software from IDBS. The dose response curve is curve fitted to model number 205 (sigmoidal dose-response model). From the curve generated, the concentration giving 50% inhibition is determined and reported.

T1 sequence (P07333 20-972): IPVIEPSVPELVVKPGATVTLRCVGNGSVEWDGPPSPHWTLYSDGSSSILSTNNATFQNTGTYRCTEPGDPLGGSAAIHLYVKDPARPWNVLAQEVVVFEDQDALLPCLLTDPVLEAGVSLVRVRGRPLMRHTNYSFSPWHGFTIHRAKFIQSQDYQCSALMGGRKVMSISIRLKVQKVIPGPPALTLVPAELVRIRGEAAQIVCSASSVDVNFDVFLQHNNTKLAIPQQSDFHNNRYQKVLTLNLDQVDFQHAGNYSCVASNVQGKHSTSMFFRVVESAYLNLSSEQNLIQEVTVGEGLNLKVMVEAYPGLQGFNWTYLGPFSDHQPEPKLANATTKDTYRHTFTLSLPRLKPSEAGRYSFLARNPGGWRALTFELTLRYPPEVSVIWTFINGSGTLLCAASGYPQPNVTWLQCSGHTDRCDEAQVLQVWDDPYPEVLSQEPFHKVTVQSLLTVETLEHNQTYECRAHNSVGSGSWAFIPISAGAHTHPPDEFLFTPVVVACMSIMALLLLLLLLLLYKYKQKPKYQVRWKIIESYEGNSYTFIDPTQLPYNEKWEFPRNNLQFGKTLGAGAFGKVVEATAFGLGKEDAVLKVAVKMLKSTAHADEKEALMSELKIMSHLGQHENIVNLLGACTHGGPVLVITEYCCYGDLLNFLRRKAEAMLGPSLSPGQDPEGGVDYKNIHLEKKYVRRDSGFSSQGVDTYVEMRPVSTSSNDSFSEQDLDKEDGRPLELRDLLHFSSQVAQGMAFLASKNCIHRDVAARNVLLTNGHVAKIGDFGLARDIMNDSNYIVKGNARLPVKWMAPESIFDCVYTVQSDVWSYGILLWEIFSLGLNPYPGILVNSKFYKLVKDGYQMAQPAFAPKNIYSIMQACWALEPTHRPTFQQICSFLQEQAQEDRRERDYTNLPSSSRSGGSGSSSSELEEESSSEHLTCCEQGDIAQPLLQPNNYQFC

SMILES | IC50 (MCP-1) [nM] | IC50 (CSF1R (FMS)) [nM]
CC(C)(C)OC(=O)[C@H]1CC(NCc2ccc(-c3cnc(N)c(NCc4c(Cl)cccc4Cl)n3)cc2)CCN1 (stereo partly drawn) [Example 21, tert-Butyl (2R)-4-[(4-{5-amino-6-[(2,6-dichlorobenzyl)amino]pyrazin-2-yl}benzyl)amino]piperidine-2-carboxylate] | 300 to 1000 | < 100
CC(=O)N(Cc1ccc(-c2cnc(N)c(NCc3c(Cl)cccc3Cl)n2)cc1)C1CCN[C@@H](C(=O)OC2CCCC2)C1 (stereo partly drawn) [Example 31, Cyclopentyl (2R)-4-[acetyl(4-{5-amino-6-[(2,6-dichlorobenzyl)amino]pyrazin-2-yl}benzyl)amino]piperidine-2-carboxylate] | < 100 | 100 to 300
CC(C)(C)OC(=O)[C@@H]1CC(NCc2ccc(-c3cnc(N)c(NCc4c(Cl)cccc4Cl)n3)cc2)CCN1 (stereo partly drawn) [Example 22, tert-Butyl (2S)-4-[(4-{5-amino-6-[(2,6-dichlorobenzyl)amino]pyrazin-2-yl}benzyl)amino]piperidine-2-carboxylate] | 300 to 1000 | < 100
CN(C(=O)c1ccc(-c2cnc(N)c(NCc3c(Cl)cccc3Cl)n2)cc1)C1CCN[C@@H](C(=O)OC2CCCC2)C1 (stereo partly drawn) [Example 2] | 300 to 1000 | 100 to 300
Nc1ncc(-c2ccc(CN3CCNC(C(=O)OC4CCCC4)C3)cc2)nc1NCc1c(Cl)cccc1Cl (stereo not drawn) [Example 9, Cyclopentyl 4-(4-{5-amino-6-[(2,6-dichlorobenzyl)amino]pyrazin-2-yl}benzyl)piperazine-2-carboxylate] | < 100 | 300 to 1000
CCc1cc(-c2cnc(N)c(NCc3c(Cl)cccc3Cl)n2)ccc1CN1CCNC(C(=O)OC2CCCC2)C1 (stereo not drawn) [Example 20, Cyclopentyl 4-(4-{5-amino-6-[(2,6-dichlorobenzyl)amino]pyrazin-2-yl}-2-ethylbenzyl)piperazine-2-carboxylate] | < 100 | 1000 to 5000
Nc1ncc(-c2ccc(C(=O)NC3CCN[C@@H](C(=O)OC4CCCC4)C3)cc2)nc1NCc1c(Cl)cccc1Cl (stereo partly drawn) [Example 1, Cyclopentyl (2R)-4-[(4-{5-amino-6-[(2,6-dichlorobenzyl)amino]pyrazin-2-yl}benzoyl)amino]piperidine-2-carboxylate] | 300 to 1000 | < 100
CC(C)(C)OC(=O)[C@H]1CC(NCc2ccc(-c3cnc(N)c(NCc4c(Cl)cccc4Cl)n3)cc2Cl)CCN1 (stereo partly drawn) [Example 25, tert-Butyl (2R)-4-[(4-{5-amino-6-[(2,6-dichlorobenzyl)amino]pyrazin-2-yl}-2-chlorobenzyl)amino]piperidine-2-carboxylate] | 300 to 1000 | 100 to 300
CC(C)(C)OC(=O)C1CN(Cc2ccc(-c3cnc(N)c(NCc4c(Cl)cccc4Cl)n3)cc2)CCN1 (stereo not drawn) [Example 23, tert-Butyl 4-(4-{5-amino-6-[(2,6-dichlorobenzyl)amino]pyrazin-2-yl}benzyl)piperazine-2-carboxylate] | 300 to 1000 | 300 to 1000

Second part, the molecule after the results:

IC50 (MCP-1) [nM] | IC50 (CSF1R (FMS)) [nM] | SMILES
300 to 1000 | 100 to 300 | Nc1ncc(-c2cnn(CCNC3CCN[C@H](C(=O)OC4CCCC4)C3)c2)nc1NCc1c(Cl)cccc1Cl (stereo partly drawn) [Example 56, Cyclopentyl (2S)-4-{[2-(4-{5-amino-6-[(2,6-dichlorobenzyl)amino]pyrazin-2-yl}-1H-pyrazol-1-yl)ethyl]amino}piperidine-2-carboxylate di-formate]
300 to 1000 | < 100 | CC(C)(C)OC(=O)[C@@H]1CC(NCc2cccc(-c3cnc(N)c(NCc4c(Cl)cccc4Cl)n3)c2)CCN1 (stereo partly drawn) [Example 47, tert-Butyl (2S)-4-[(3-{5-amino-6-[(2,6-dichlorobenzyl)amino]pyrazin-2-yl}benzyl)amino]piperidine-2-carboxylate di-formate]
1000 to 5000 | 1000 to 5000 | CC(C)C[C@H](NCCn1cc(-c2cnc(N)c(NCc3c(Cl)cccc3Cl)n2)cn1)C(=O)OC1CCCC1 [Example 57, Cyclopentyl N-[2-(4-{5-amino-6-[(2,6-dichlorobenzyl)amino]pyrazin-2-yl}-1H-pyrazol-1-yl)ethyl]-L-leucinate]
1000 to 5000 | 100 to 300 | Nc1ncc(-c2cccc(C(=O)NC3CCN[C@@H](C(=O)OC4CCCC4)C3)c2)nc1NCc1c(Cl)cccc1Cl (stereo partly drawn) [Example 32, Cyclopentyl (2R)-4-[(3-{5-amino-6-[(2,6-dichlorobenzyl)amino]pyrazin-2-yl}benzoyl)amino]piperidine-2-carboxylate]
> 5000 | > 5000 | CC(C)C[C@H](NCc1cccc(-c2cnc(N)c(NCc3c(Cl)cccc3Cl)n2)c1)C(=O)OC1CCCC1 [Example 38, Cyclopentyl N-(3-{5-amino-6-[(2,6-dichlorobenzyl)amino]pyrazin-2-yl}benzyl)-L-leucinate]
300 to 1000 | 1000 to 5000 | CC(C)(NCCc1cccc(-c2cnc(N)c(NCc3c(Cl)cccc3Cl)n2)c1)C(=O)OC1CCCC1 [Example 48, Cyclopentyl N-[2-(3-{5-amino-6-[(2,6-dichlorobenzyl)amino]pyrazin-2-yl}phenyl)ethyl]-2-methylalaninate]
